Experimental data published in patent US20260028326A1, “COMPOUND BASED ON ISOINDOLINE-SUBSTITUTED GLUTARIMIDE BACKBONE AND USE THEREOF” (GLUETACS THERAPEUTICS (SHANGHAI) CO., LTD., priority 2022, published 2026).
Each block holds one compound with its values, some of them ahead of it.

Experiments:
[1] = molecular target: human Cereblon WT GST-tagged protein (Homo sapiens (Human), UniProt Q96SW2); experiment: CRBN-binding affinity, HTRF (CEREBLON BINDING kit)
Procedure, shortened: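 GST-tagged human WT Cereblon incubated with compound, then Thalidomide-Re tracer and anti-GST Eu antibody added. Displacement read by HTRF, reported as CRBN binding inhibition rate against blank control wells without protein.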

IKZF1 protein = IKZF1 protein (Homo sapiens (Human), UniProt Q13422+Q96SW2); experiment: Western-blot assay of substrate protein degradation in hPBMC, IKZF1; format: cell-based; settings: hPBMC cells, compound 500 nM, 24 hours, Western blot
Chain of IKZF1 protein (Q13422 whole entry): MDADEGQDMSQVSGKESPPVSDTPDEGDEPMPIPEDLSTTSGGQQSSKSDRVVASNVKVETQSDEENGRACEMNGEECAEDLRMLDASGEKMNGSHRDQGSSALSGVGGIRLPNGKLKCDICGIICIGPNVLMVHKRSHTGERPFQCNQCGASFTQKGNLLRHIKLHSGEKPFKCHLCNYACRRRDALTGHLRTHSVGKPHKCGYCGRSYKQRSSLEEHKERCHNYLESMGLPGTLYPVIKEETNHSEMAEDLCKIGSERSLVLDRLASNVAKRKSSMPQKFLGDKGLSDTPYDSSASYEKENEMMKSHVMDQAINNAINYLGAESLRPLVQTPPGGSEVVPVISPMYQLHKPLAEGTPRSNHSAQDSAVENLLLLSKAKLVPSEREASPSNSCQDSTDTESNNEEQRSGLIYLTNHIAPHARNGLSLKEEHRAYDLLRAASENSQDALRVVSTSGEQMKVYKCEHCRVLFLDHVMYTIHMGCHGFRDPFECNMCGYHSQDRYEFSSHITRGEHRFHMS
Chain of IKZF1 protein (Q96SW2 whole entry): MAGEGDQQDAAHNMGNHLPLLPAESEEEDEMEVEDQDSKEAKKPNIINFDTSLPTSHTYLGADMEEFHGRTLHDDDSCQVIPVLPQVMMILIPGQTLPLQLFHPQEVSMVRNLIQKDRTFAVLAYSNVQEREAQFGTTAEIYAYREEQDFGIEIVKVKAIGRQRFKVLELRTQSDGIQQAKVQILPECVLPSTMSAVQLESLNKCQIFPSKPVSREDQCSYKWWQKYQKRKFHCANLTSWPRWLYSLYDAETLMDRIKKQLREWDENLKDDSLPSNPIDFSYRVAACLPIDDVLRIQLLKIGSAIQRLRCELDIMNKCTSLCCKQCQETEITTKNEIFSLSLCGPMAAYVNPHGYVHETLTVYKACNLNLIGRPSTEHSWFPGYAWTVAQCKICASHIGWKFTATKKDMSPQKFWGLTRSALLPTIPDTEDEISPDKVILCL
Chain of IKZF1 protein (Q16531 whole entry partner): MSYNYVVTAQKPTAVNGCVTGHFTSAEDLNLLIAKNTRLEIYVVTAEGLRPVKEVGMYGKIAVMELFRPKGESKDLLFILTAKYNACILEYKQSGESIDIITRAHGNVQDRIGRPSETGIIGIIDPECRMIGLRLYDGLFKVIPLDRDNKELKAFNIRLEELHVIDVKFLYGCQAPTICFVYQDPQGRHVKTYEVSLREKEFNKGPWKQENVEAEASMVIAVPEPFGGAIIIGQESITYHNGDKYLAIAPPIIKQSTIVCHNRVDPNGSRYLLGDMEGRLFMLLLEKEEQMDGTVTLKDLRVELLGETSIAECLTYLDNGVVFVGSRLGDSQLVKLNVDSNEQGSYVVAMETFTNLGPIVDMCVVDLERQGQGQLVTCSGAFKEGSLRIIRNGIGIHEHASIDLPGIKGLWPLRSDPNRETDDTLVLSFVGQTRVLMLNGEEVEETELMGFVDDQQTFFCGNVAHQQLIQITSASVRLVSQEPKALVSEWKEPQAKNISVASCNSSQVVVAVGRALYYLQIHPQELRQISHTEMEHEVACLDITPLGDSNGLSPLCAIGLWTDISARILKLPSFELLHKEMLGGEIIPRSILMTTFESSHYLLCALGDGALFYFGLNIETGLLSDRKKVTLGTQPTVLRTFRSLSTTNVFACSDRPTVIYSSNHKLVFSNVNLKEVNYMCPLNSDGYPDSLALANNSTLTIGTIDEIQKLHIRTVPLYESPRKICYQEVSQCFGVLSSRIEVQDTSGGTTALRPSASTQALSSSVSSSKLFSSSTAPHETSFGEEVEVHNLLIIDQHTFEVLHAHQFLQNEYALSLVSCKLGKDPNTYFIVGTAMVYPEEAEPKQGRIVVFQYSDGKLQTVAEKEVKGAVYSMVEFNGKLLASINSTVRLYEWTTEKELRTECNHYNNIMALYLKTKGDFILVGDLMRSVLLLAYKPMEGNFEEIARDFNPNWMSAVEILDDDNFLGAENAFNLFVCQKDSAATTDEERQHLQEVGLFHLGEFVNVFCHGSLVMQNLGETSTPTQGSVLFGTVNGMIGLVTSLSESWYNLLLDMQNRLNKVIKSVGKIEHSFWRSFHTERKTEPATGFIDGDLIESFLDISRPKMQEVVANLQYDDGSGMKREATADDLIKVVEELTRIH
Method: (§1) After treating the cells with the compounds for 24 hours, the cells were collected and lysed using RIPA protein lysate containing phosphatase inhibitors. The lysate was then placed on ice for 30-60 minutes and centrifuged. The supernatant was aspirated as the extracted total cell protein. The protein concentration of the supernatant was determined using the conventional BCA (Bicinchoninic Acid) assay. The supernatant was then mixed with 4×SDS sample loading buffer, denatured at 95° C. for 5 minutes, and then subjected to SDS-PAGE electrophoresis on a polyacrylamide gel, followed by transfer to a nitrocellulose membrane (NC membrane). The membrane was blocked with blocking buffer at room temperature for 1-2 hours, and then antibody incubation and detection were carried out according to the antibody instructions provided by Cell Signaling Technology.
(§2) Half-Maximal Degradation Concentration value (the drug concentration required for degrading proteins by 50%, abbreviated as DC50) reads method: comparing the gray values of the Western blotting bands for the drug treatment with the gray values of the Western blotting band for the DMSO control, and reading the drug concentration range corresponding to the gray value of the Western blotting bands for the drug treatment which is equal to half of the gray value of the Western blotting band for the DMSO control.
(§3) DC50 value could also be calculated as follows: using software ImageJ to quantify the gray values of the Western blotting bands for the drug treatment, fitting the relationship curve between drug concentrations and gray values, and from the fitted curve, calculating the drug concentration corresponding to half of the gray value of the Western blotting band for the DMSO control.

IKZF3 protein = IKZF3 protein (Homo sapiens (Human), UniProt Q96SW2+Q9UKT9); experiment: Western-blot assay of substrate protein degradation in hPBMC, IKZF3; format: cell-based; settings: hPBMC cells, compound 500 nM, 24 hours, Western blot
Chain of IKZF3 protein (Q9UKT9 whole entry): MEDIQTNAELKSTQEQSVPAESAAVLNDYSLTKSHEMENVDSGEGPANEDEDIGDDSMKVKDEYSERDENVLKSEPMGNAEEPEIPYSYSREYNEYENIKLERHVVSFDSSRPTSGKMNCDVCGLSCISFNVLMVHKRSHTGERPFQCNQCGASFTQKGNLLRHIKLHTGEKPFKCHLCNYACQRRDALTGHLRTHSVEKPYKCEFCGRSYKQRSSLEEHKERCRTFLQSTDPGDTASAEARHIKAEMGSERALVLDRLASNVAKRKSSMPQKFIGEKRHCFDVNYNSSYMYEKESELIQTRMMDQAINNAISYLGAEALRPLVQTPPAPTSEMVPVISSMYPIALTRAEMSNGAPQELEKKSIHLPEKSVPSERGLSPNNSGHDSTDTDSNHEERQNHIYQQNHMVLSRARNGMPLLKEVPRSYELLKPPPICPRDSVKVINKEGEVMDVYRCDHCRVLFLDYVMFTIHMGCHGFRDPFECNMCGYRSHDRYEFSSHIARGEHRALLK
Chain of IKZF3 protein (Q96SW2 whole entry): as the sequence (Q96SW2 whole entry) above
Chain of IKZF3 protein (Q16531 whole entry partner): as the sequence (Q16531 whole entry partner) above
Method: as §1, §2, §3

GSPT1 protein = GSPT1 protein (Homo sapiens (Human), UniProt P15170+Q96SW2); experiment: Western-blot assay of substrate protein degradation in hPBMC, GSPT1; format: cell-based; settings: hPBMC cells, compound 500 nM, 24 hours, Western blot
Chain of GSPT1 protein (P15170 whole entry): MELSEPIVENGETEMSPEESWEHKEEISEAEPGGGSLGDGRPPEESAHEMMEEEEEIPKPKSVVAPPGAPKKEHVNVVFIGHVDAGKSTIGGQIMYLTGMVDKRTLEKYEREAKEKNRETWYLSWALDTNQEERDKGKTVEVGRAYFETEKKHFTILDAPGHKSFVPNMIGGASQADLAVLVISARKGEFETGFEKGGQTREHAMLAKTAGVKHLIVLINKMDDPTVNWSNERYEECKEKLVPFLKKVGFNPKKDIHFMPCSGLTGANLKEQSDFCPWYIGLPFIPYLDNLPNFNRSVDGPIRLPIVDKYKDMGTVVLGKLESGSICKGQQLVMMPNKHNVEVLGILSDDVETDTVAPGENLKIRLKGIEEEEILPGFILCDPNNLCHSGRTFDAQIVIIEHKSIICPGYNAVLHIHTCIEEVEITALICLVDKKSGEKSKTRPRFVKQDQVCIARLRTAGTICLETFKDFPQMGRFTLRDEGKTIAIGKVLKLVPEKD
Chain of GSPT1 protein (Q96SW2 whole entry): as the sequence (Q96SW2 whole entry) above
Chain of GSPT1 protein (Q16531 whole entry partner): as the sequence (Q16531 whole entry partner) above
Method: as §1, §2, §3

Chain of human Cereblon WT GST-tagged protein (Q96SW2 whole entry): as the sequence (Q96SW2 whole entry) above

Structure (SMILES): CC1(C)CCC(C(=O)N2CCC3(CC2)CN(Cc2ccc4c(c2)CN(C2CCC(=O)NC2=O)C4=O)C3)=C(c2ccc(F)cc2)C1 (stereo not shown) [GT-05404, 3-(5-((7-(4′-fluoro-5,5-dimethyl-3,4,5,6-tetrahydro-[1,1′-biphenyl]-2-carbonyl)-2,7-diazaspiro[3.5]nonan-2-yl)methyl)-1-oxoisoindolin-2-yl)piperidine-2,6-dione]
IC50 [1]: 490 nM
residual substrate protein level, IKZF1 (IKZF1 protein): B (B represents a residual substrate protein level of >50%)
residual substrate protein level, IKZF3 (IKZF3 protein): A (A represents a residual substrate protein level of <50%)
residual substrate protein level, GSPT1 (GSPT1 protein): B (B represents a residual substrate protein level of >50%)

Structure (SMILES): O=C1CCC(N2Cc3cc(C(=O)N4C5CC4CN(C(=O)C4=C(c6ccc(F)cc6)CCCC4)C5)ccc3C2=O)C(=O)N1 (stereo not shown) [GT-05449, 3-(5-(3-(4′-fluoro-3,4,5,6-tetrahydro-[1,1′-biphenyl]-2-carbonyl)-3,6-diazabicyclo[3.1.1]heptane-6-carbonyl)-1-oxoisoindolin-2-yl)piperidine-2,6-dione]
IC50 [1]: 1690 nM
residual substrate protein level, IKZF1 (IKZF1 protein): B (B represents a residual substrate protein level of >50%)
residual substrate protein level, IKZF3 (IKZF3 protein): B (B represents a residual substrate protein level of >50%)
residual substrate protein level, GSPT1 (GSPT1 protein): A (A represents a residual substrate protein level of <50%)

Structure (SMILES): CC1(C)CCC(CN2CC3CC(C2)N3C(=O)c2ccc3c(c2)CN(C2CCC(=O)NC2=O)C3=O)=C(c2ccc(F)cc2)C1 (stereo not shown) [GT-05450, 3-(5-(3-((4′-fluoro-5,5-dimethyl-3,4,5,6-tetrahydro-[1,1′-biphenyl]-2-yl)methyl)-3,6-diazabicyclo[3.1.1]heptane-6-carbonyl)-1-oxoisoindolin-2-yl)piperidine-2,6-dione]
IC50 [1]: 890 nM
residual substrate protein level, IKZF1 (IKZF1 protein): B (B represents a residual substrate protein level of >50%)
residual substrate protein level, IKZF3 (IKZF3 protein): B (B represents a residual substrate protein level of >50%)
residual substrate protein level, GSPT1 (GSPT1 protein): A (A represents a residual substrate protein level of <50%)

Structure (SMILES): O=C1CCC(N2Cc3cc(C(=O)N4CCN(Cc5ccccc5-c5ccc(Cl)cc5)CC4)ccc3C2=O)C(=O)N1 (stereo not shown) [GT-05455, 3-(5-(4-((4′-chloro-[1,1′-biphenyl]-2-yl)methyl)piperazine-1-carbonyl)-1-oxoisoindolin-2-yl)piperidine-2,6-dione]
IC50 [1]: 1070 nM
residual substrate protein level, IKZF1 (IKZF1 protein): B (B represents a residual substrate protein level of >50%)
residual substrate protein level, IKZF3 (IKZF3 protein): B (B represents a residual substrate protein level of >50%)
residual substrate protein level, GSPT1 (GSPT1 protein): A (A represents a residual substrate protein level of <50%)

Structure (SMILES): O=C1CCC(N2Cc3c(ccc(CN4CCN(C(=O)C5=C(c6ccc(F)cc6)CCCC5)CC4)c3F)C2=O)C(=O)N1 (stereo not shown) [GT-05472, 3-(4-fluoro-5-((4-(4′-fluoro-3,4,5,6-tetrahydro-[1,1′-biphenyl]-2-carbonyl)piperazin-1-yl)methyl)-1-oxoisoindolin-2-yl)piperidine-2,6-dione]
IC50 [1]: 1120 nM
residual substrate protein level, IKZF1 (IKZF1 protein): B (B represents a residual substrate protein level of >50%)
residual substrate protein level, IKZF3 (IKZF3 protein): B (B represents a residual substrate protein level of >50%)
residual substrate protein level, GSPT1 (GSPT1 protein): A (A represents a residual substrate protein level of <50%)

Structure (SMILES): O=C1CCC(N2Cc3cc(CN4CCN(C(=O)C5=C(c6ccc(F)cc6)CCCC5)CC4)c(F)cc3C2=O)C(=O)N1 (stereo not shown) [GT-05473, 3-(6-fluoro-5-((4-(4′-fluoro-3,4,5,6-tetrahydro-[1,1′-biphenyl]-2-carbonyl)piperazin-1-yl)methyl)-1-oxoisoindolin-2-yl)piperidine-2,6-dione]
IC50 [1]: 1160 nM
residual substrate protein level, IKZF1 (IKZF1 protein): B (B represents a residual substrate protein level of >50%)
residual substrate protein level, IKZF3 (IKZF3 protein): B (B represents a residual substrate protein level of >50%)
residual substrate protein level, GSPT1 (GSPT1 protein): A (A represents a residual substrate protein level of <50%)

Structure (SMILES): CC1(C)CCC(C(=O)N2CC(O)(C(O)c3ccc4c(c3)CN(C3CCC(=O)NC3=O)C4=O)C2)=C(c2ccc(F)cc2)C1 (stereo not shown) [GT-05490, 3-(5-((1-(4′-fluoro-5,5-dimethyl-3,4,5,6-tetrahydro-[1,1′-biphenyl]-2-carbonyl)-3-hydroxyazetidin-3-yl)(hydroxy)methyl)-1-oxoisoindolin-2-yl)piperidine-2,6-dione]
IC50 [1]: 580 nM
residual substrate protein level, IKZF1 (IKZF1 protein): A (A represents a residual substrate protein level of <50%)
residual substrate protein level, IKZF3 (IKZF3 protein): B (B represents a residual substrate protein level of >50%)
residual substrate protein level, GSPT1 (GSPT1 protein): B (B represents a residual substrate protein level of >50%)

Structure (SMILES): CC1(C)CCC(C(=O)N2C3CC2CN(Cc2ccc4c(c2)CN(C2CCC(=O)NC2=O)C4=O)C3)=C(c2ccc(F)cc2)C1 (stereo not shown) [GT-05515, 3-(5-((6-(4′-fluoro-5,5-dimethyl-3,4,5,6-tetrahydro-[1,1′-biphenyl]-2-carbonyl)-3,6-diazabicyclo[3.1.1]heptan-3-yl)methyl)-1-oxoisoindolin-2-yl)piperidine-2,6-dione]
IC50 [1]: 1010 nM
residual substrate protein level, IKZF1 (IKZF1 protein): B (B represents a residual substrate protein level of >50%)
residual substrate protein level, IKZF3 (IKZF3 protein): B (B represents a residual substrate protein level of >50%)
residual substrate protein level, GSPT1 (GSPT1 protein): A (A represents a residual substrate protein level of <50%)

Continued by falling IC50 [1], values first:

IC50 [1]: 730 nM
Structure (SMILES): CC1(C)CCC(C(=O)N2CC(=Cc3ccc4c(c3)CN(C3CCC(=O)NC3=O)C4=O)C2)=C(c2ccc(Cl)cc2)C1 (stereo not shown) [GT-05420, 3-(5-((1-(4′-chloro-5,5-dimethyl-3,4,5,6-tetrahydro-[1,1′-biphenyl]-2-carbonyl)azetidin-3-ylidene)methyl)-1-oxoisoindolin-2-yl)piperidine-2,6-dione]
residual substrate protein level, IKZF1 (IKZF1 protein): B (B represents a residual substrate protein level of >50%)
residual substrate protein level, IKZF3 (IKZF3 protein): B (B represents a residual substrate protein level of >50%)
residual substrate protein level, GSPT1 (GSPT1 protein): A (A represents a residual substrate protein level of <50%)

IC50 [1]: 730 nM
Structure (SMILES): CC1(C)CCC(CN2CCCN(Cc3ccc4c(c3)CN(C3CCC(=O)NC3=O)C4=O)CC2)=C(c2ccc(F)cc2)C1 (stereo not shown) [GT-05504, 3-(5-((4-((4′-fluoro-5,5-dimethyl-3,4,5,6-tetrahydro-[1,1′-biphenyl]-2-yl)methyl)-1,4-diazepan-1-yl)methyl)-1-oxoisoindolin-2-yl)piperidine-2,6-dione]
residual substrate protein level, IKZF1 (IKZF1 protein): A (A represents a residual substrate protein level of <50%)
residual substrate protein level, IKZF3 (IKZF3 protein): A (A represents a residual substrate protein level of <50%)
residual substrate protein level, GSPT1 (GSPT1 protein): B (B represents a residual substrate protein level of >50%)

IC50 [1]: 620 nM
Structure (SMILES): CC1(C)CCC(C(=O)N2CC(O)(C(O)c3ccc4c(c3)CN(C3CCC(=O)NC3=O)C4=O)C2)=C(c2ccc(Cl)cc2)C1 (stereo not shown) [GT-05426, 3-(5-((1-(4′-chloro-5,5-dimethyl-3,4,5,6-tetrahydro-[1,1′-biphenyl]-2-carbonyl)-3-hydroxyazetidin-3-yl)(hydroxy)methyl)-1-oxoisoindolin-2-yl)piperidine-2,6-dione]
residual substrate protein level, IKZF1 (IKZF1 protein): B (B represents a residual substrate protein level of >50%)
residual substrate protein level, IKZF3 (IKZF3 protein): A (A represents a residual substrate protein level of <50%)
residual substrate protein level, GSPT1 (GSPT1 protein): A (A represents a residual substrate protein level of <50%)

IC50 [1]: 570 nM
Structure (SMILES): CC1(C)CCC(CN2CC3CCC2CN3Cc2ccc3c(c2)CN(C2CCC(=O)NC2=O)C3=O)=C(c2ccc(F)cc2)C1 (stereo not shown) [GT-05512, 3-(5-((5-((4′-fluoro-5,5-dimethyl-3,4,5,6-tetrahydro-[1,1′-biphenyl]-2-yl)methyl)-2,5-diazabicyclo[2.2.2]octan-2-yl)methyl)-1-oxoisoindolin-2-yl)piperidine-2,6-dione]
residual substrate protein level, IKZF1 (IKZF1 protein): B (B represents a residual substrate protein level of >50%)
residual substrate protein level, IKZF3 (IKZF3 protein): B (B represents a residual substrate protein level of >50%)
residual substrate protein level, GSPT1 (GSPT1 protein): A (A represents a residual substrate protein level of <50%)

IC50 [1]: 430 nM
Structure (SMILES): CC1(C)CCC(C(=O)N2CC3CCC2CN3Cc2ccc3c(c2)CN(C2CCC(=O)NC2=O)C3=O)=C(c2ccc(F)cc2)C1 (stereo not shown) [GT-05402, 3-(5-((5-(4′-fluoro-5,5-dimethyl-3,4,5,6-tetrahydro-[1,1′-biphenyl]-2-carbonyl)-2,5-diazabicyclo[2.2.2]octan-2-yl)methyl)-1-oxoisoindolin-2-yl)piperidine-2,6-dione]
residual substrate protein level, IKZF1 (IKZF1 protein): B (B represents a residual substrate protein level of >50%)
residual substrate protein level, IKZF3 (IKZF3 protein): A (A represents a residual substrate protein level of <50%)
residual substrate protein level, GSPT1 (GSPT1 protein): B (B represents a residual substrate protein level of >50%)
